Experiments:
Hepatitis C virus [1] = test: Antiviral activity against HCV genotype 1b infected in human Huh7 cells after 3 days by cell-based replicon assay; format: functional, Hepacivirus hominis; settings: Huh-7, 72 h
Hepatitis C virus [2] = test: Antiviral activity against HCV genotype 1b infected in human Huh7 cells after 3 days by cell-based replicon assay in presence of 10% fetal bovine serum; format: functional, Hepacivirus hominis; settings: Huh-7, 72 h
Hepatitis C virus [3] = test: Antiviral activity against HCV genotype 1b infected in human Huh7 cells after 3 days by cell-based replicon assay in presence of 40% normal human serum; format: functional, Hepacivirus hominis; settings: Huh-7, 72 h
[4] = Cytotoxicity against human HuH7 cells; format: cell-based, Huh-7
[5] = Oral bioavailability in Sprague-Dawley rat at 30 mg/kg; format: ADME, organism-based; settings: in vivo
[6] = Half life in Sprague-Dawley rat at 5 mg/kg, iv as 30 mins infusion; format: ADME, organism-based; parameters: dose 5 mg/kg, route intravenous; settings: in vivo
[7] = Half life in beagle dog at 1 mg/kg, iv as 30 mins infusion; format: ADME, organism-based, Canis lupus familiaris; parameters: dose 1 mg/kg, route intravenous; settings: in vivo
[8] = Oral bioavailability in beagle dog at 2 mg/kg; format: ADME, organism-based, Canis lupus familiaris; settings: in vivo
[9] = Half life in monkey at 1 mg/kg, iv as 30 mins infusion; format: ADME, organism-based, Macaca mulatta; parameters: dose 1 mg/kg, route intravenous; settings: rhesus monkey, in vivo
[10] = Lipophilicity, log P of the compound; format: physicochemical; settings: octanol/water
[11] = Cmax in Sprague-Dawley rat at 3 mg/kg, po; format: ADME, organism-based; parameters: dose 3 mg/kg, route oral; settings: in vivo
[12] = Half life in Sprague-Dawley rat at 3 mg/kg, po; format: ADME, organism-based; parameters: dose 3 mg/kg, route oral; settings: in vivo
[13] = Oral bioavailability in Sprague-Dawley rat at 5 mg/kg; format: ADME, organism-based; settings: in vivo
[14] = Oral bioavailability in beagle dog at 2.3 mg/kg; format: ADME, organism-based, Canis lupus familiaris; settings: in vivo
[15] = Cmax in monkey at 3 mg/kg, po; format: ADME, organism-based, Macaca mulatta; parameters: dose 3 mg/kg, route oral; settings: rhesus monkey, in vivo
[16] = Half life in monkey at 3 mg/kg, po; format: ADME, organism-based, Macaca mulatta; parameters: dose 3 mg/kg, route oral; settings: rhesus monkey, in vivo
[17] = Oral bioavailability in Sprague-Dawley rat at 1 mg/kg; format: ADME, organism-based; settings: in vivo
[18] = Cmax in beagle dog at 2.5 mg/kg, po; format: ADME, organism-based, Canis lupus familiaris; parameters: dose 2.5 mg/kg, route oral; settings: in vivo
[19] = Half life in beagle dog at 2.5 mg/kg, po; format: ADME, organism-based, Canis lupus familiaris; parameters: dose 2.5 mg/kg, route oral; settings: in vivo
[20] = Oral bioavailability in beagle dog at 2.5 mg/kg; format: ADME, organism-based, Canis lupus familiaris; settings: in vivo
[21] = Cmax in monkey at 2.5 mg/kg, po; format: ADME, organism-based, Macaca mulatta; parameters: dose 2.5 mg/kg, route oral; settings: rhesus monkey, in vivo
[22] = Half life in monkey at 2.5 mg/kg, po; format: ADME, organism-based, Macaca mulatta; parameters: dose 2.5 mg/kg, route oral; settings: rhesus monkey, in vivo
[23] = Oral bioavailability in monkey at 2.5 mg/kg; format: ADME, organism-based, Macaca mulatta; settings: rhesus monkey, in vivo
[24] = Half life in Sprague-Dawley rat at 1 mg/kg, iv as 30 mins infusion; format: ADME, organism-based; parameters: dose 1 mg/kg, route intravenous; settings: in vivo
[25] = Oral bioavailability in beagle dog at 1 mg/kg; format: ADME, organism-based, Canis lupus familiaris; settings: in vivo
[26] = Cmax in monkey at 5 mg/kg, po; format: ADME, organism-based, Macaca mulatta; parameters: dose 5 mg/kg, route oral; settings: rhesus monkey, in vivo
[27] = Oral bioavailability in monkey at 5 mg/kg; format: ADME, organism-based, Macaca mulatta; settings: rhesus monkey, in vivo
[28] = Oral bioavailability in Sprague-Dawley rat at 2 mg/kg; format: ADME, organism-based; settings: in vivo

Compound: COC(=O)N[C@@H](C(=O)N1CCC[C@H]1c1ncc(-c2ccc(C#CC#Cc3ccc(-c4cnc([C@@H]5CCCN5C(=O)[C@H](NC(=O)OC)C(C)C)[nH]4)cc3)cc2)[nH]1)C(C)C
- EC50 (Hepatitis C virus [1]): 0.384 nM

Compound: COC(=O)N[C@@H](C(=O)N1CCCC1c1ncc(C#CC#Cc2ccc(-c3cnc(C4CCCN4C(=O)[C@H](NC(=O)OC)C(C)C)[nH]3)cc2)[nH]1)C(C)C (single isomer, unassigned; 13b)
- EC50 (Hepatitis C virus [2]): 47 nM
- EC50 (Hepatitis C virus [3]): 137 nM
- CC50 [4]: 298000 nM

Compound: COC(=O)N[C@H](C(=O)N1CCC[C@H]1c1ncc(-c2ccc(-c3csc4c(-c5ccc6[nH]c([C@@H]7CCCN7C(=O)[C@H](NC(=O)OC)c7ccccc7)nc6c5)csc34)cc2)[nH]1)C(C)C
- EC50 (Hepatitis C virus [1]): 0.003 nM

Compound: COC(=O)N[C@H](C(=O)N1CCC[C@@H]1c1ncc(C#CC#Cc2ccc(-c3cnc([C@H]4CCCN4C(=O)[C@H](NC(=O)OC)C(C)C)[nH]3)cc2)[nH]1)C(C)C (single isomer, unassigned)
- EC50 (Hepatitis C virus [2]): 0.079 nM
- EC50 (Hepatitis C virus [3]): 0.243 nM
- CC50 [4]: 24700 nM

Compound: COC(=O)N[C@@H](C(=O)N1CCCC1c1ncc(C#CC#Cc2ccc(-c3cnc(C4CCCN4C(=O)[C@H](NC(=O)OC)C(C)C)[nH]3)cc2)[nH]1)C(C)C (single isomer, unassigned; 13k)
- EC50 (Hepatitis C virus [2]): 994 nM
- EC50 (Hepatitis C virus [3]): 7440 nM
- CC50 [4]: 108000 nM

Compound: COC(=O)N[C@@H](C(=O)N1CCC[C@H]1c1ncc(C#CC#Cc2cnc([C@@H]3CCCN3C(=O)[C@H](NC(=O)OC)C(C)C)[nH]2)[nH]1)C(C)C
- EC50 (Hepatitis C virus [1]): 1.33 nM

Compound: COC(=O)N[C@H](C(=O)N1CCC[C@@H]1c1ncc(-c2ccc(C#CC#Cc3cnc([C@H]4CCCN4C(=O)[C@H](NC(=O)OC)C(C)C)[nH]3)cc2)[nH]1)C(C)C
- EC50 (Hepatitis C virus [2]): 0.409 nM
- EC50 (Hepatitis C virus [3]): 0.737 nM
- CC50 [4]: 30300 nM

Compound: COC(=O)N[C@@H](C(=O)N1CCC[C@H]1c1ncc(-c2ccc3c(c2)O[C@@H](c2ccccc2)n2c-3cc3cc(-c4cnc([C@@H]5CCCN5C(=O)[C@H](NC(=O)OC)C(C)C)[nH]4)ccc32)[nH]1)C(C)C
- bioavailability [5]: 9%
- half-life [6]: 4.2 h
- half-life [7]: 4.7 h
- bioavailability [8]: 35%
- half-life [9]: 16 h
- logP [10]: 8.61
- EC50 (Hepatitis C virus [1]): 0.003 nM

Compound: COC(=O)N[C@@H](C(=O)N1CCC[C@H]1c1nc2ccc(C#Cc3ccc4nc([C@@H]5CCCN5C(=O)[C@H](NC(=O)OC)C(C)C)[nH]c4c3)cc2[nH]1)C(C)C
- EC50 (Hepatitis C virus [1]): 0.055 nM

Compound: COC(=O)N[C@@H](C(=O)N1CCC[C@H]1c1nc2ccc(C#CC#Cc3ccc4nc([C@@H]5CCCN5C(=O)[C@H](NC(=O)OC)C(C)C)[nH]c4c3)cc2[nH]1)C(C)C
- EC50 (Hepatitis C virus [1]): 0.009 nM

Compound: COC(=O)N[C@H](C(=O)N1CCC[C@H]1c1ncc(-c2ccc(-c3ccc(-c4cnc([C@@H]5CCCN5C(=O)[C@@H](NC(=O)OC)C(C)C)[nH]4)cc3)cc2)[nH]1)C(C)C
- Cmax [11]: 0.728 µM
- half-life [12]: 1.5 h
- bioavailability [13]: 50%
- bioavailability [14]: 58.5%
- Cmax [15]: 0.5 µM
- half-life [16]: 3 h
- logP [10]: 6.33
- EC50 (Hepatitis C virus [1]): 0.003 nM

Compound: COC(=O)N[C@H](C(=O)N1CCCC1c1ncc(C#CC#Cc2ccc(-c3cnc(C4CCCN4C(=O)[C@@H](NC(=O)OC)C(C)C)[nH]3)cc2)[nH]1)C(C)C (single isomer, unassigned; 13i)
- EC50 (Hepatitis C virus [2]): 5.37 nM
- EC50 (Hepatitis C virus [3]): 36.1 nM
- CC50 [4]: 34700 nM

Compound: COC(=O)N[C@H](C(=O)N1CCC[C@H]1c1ncc(-c2ccc(-c3ccc(-c4cnc([C@@H]5CC6(CN5C(=O)[C@@H](NC(=O)OC)C(C)C)OCCO6)[nH]4)cc3)cc2)[nH]1)C(C)C
- EC50 (Hepatitis C virus [1]): 0.0074 nM

Compound: COC(=O)N[C@@H](C(=O)N1CCC[C@H]1C(=O)Nc1ccc([C@H]2CC[C@@H](c3ccc(NC(=O)[C@@H]4CCCN4C(=O)[C@H](NC(=O)OC)C(C)C)cc3)N2c2ccc(C(C)(C)C)cc2)cc1)C(C)C
- Cmax [11]: 3.36 µM
- half-life [12]: 15.9 h
- bioavailability [17]: 6.2%
- Cmax [18]: 0.72 µM
- half-life [19]: 7.3 h
- bioavailability [20]: 57%
- Cmax [21]: 0.32 µM
- half-life [22]: 5 h
- bioavailability [23]: 35%
- EC50 (Hepatitis C virus [1]): 0.005 nM

Compound: CN(C)[C@@H](C(=O)N1CCC[C@H]1c1nc2cc(-c3cnc(-c4ccc5[nH]c([C@@H]6CCCN6C(=O)[C@@H](c6ccccc6)N(C)C)nc5c4)o3)ccc2[nH]1)c1ccccc1
- EC50 (Hepatitis C virus [1]): < 4.6 nM

Compound: c1cc2oc(-c3ccc(-c4ncc([C@@H]5CCCN5)[nH]4)cc3)cc2cc1-c1cnc([C@@H]2CCCN2)[nH]1
- half-life [24]: 2 h
- half-life [7]: 7.7 h
- bioavailability [25]: 108%
- Cmax [26]: 0.18 µM
- bioavailability [27]: 12%
- half-life [9]: 3 h
- bioavailability [28]: 38%

Compound: COC(=O)N[C@H](C(=O)N1CCCC1c1ncc(C#CC#Cc2ccc(-c3cnc(C4CCCN4C(=O)[C@@H](NC(=O)OC)C(C)C)[nH]3)cc2)[nH]1)C(C)C (single isomer, unassigned; 13j)
- EC50 (Hepatitis C virus [2]): 8880 nM
- EC50 (Hepatitis C virus [3]): 6900 nM
- CC50 [4]: 59700 nM
